Experiments:
T. reesei Rut-C30 = test: Protein (cellulase) induction in T. reesei Rut-C30 shake-flask culture, CMC endo-glucanase activity assay; type: cell-based, Trichoderma reesei; details: for Cellulase activity at day 3 / Cellulase activity at day 3 (specific induction power, U/mg inducer): 2% glucose as carbon source
Source text: To prepare for protein induction studies using Trichoderma, a citrate minimal media was first prepared. The media composition, as modified from England et al. (U.S. Pat. […] The final pH was adjusted to 5.50 using NaOH. […] It was obtained from ATCC (56765) and developed as a catabolic de-repressed strain from classic mutagenesis of parent strain NG14 and the wild type […] al., BMC Genomics, 9:327, (2008)). To propagate Trichoderma, the freeze-dried stock from ATCC was first dissolved in sterile deionized water and then transferred onto a PDA (potato dextrose agar) plate (Teknova […]) using a sterile loop. The PDA plate was maintained at room temperature under white fluorescent light and after approximately 7 days, green Trichoderma spores could be seen. In addition, 60% (w/v) glucose stock was prepared and used both as control and as the carbon source for Trichoderma growth. […] Bacteriol., 73:269-278, (1957)).

[1] = system: cellulase gene promoter in Trichoderma reesei; details: cited from earlier work
[2] = system: Aspergillus niger (NRRL 330); test: Protein (amylase) induction in Aspergillus niger culture, amylase activity assay; type: cell-based; details: inducer 0.05 g/L; 1% sorbitol as carbon source; 24 hours after inducer addition
Description: The procedure of preparing maltose acetate chemically and subsequent sample recovery follows the same procedure described in Example 4. […] Aspergillus niger (NRRL 330), obtained from ARS culture collection, was maintained on a PDA plate and allowed to sporulate for a week at room temperature. For inoculation, a 2 cm by 2 cm area agar plug was first removed and suspended in 5 mL sterile water. […] After additional 24 hours, the cultures were assayed for amylase activity following similar procedures to those detailed by Barton et al. (J.

Pullularia pullulans = details: cited from earlier work
Penicillium purpurogenum = details: cited from earlier work

OC[C@H]1O[C@@H](O[C@H]2[C@H](O)[C@@H](O)C(O)O[C@@H]2CO)[C@H](O)[C@@H](O)[C@H]1O (stereo partly drawn) [lactose, D-lactose, reference compound]
Cellulase activity at day 3 (T. reesei Rut-C30; inducer 1.0 g/L): 0.64 U/mL | Cellulase activity at day 3 (specific induction power, U/mg inducer) (T. reesei Rut-C30; inducer 1.0 g/L): 0.64 U/mg

OC[C@H]1O[C@@H](O[C@H]2C(O)O[C@H](CO)[C@@H](O)[C@@H]2O)[C@H](O)[C@@H](O)[C@@H]1O (stereo partly shown) [sophorose, reference compound]
Cellulase activity at day 3 (T. reesei Rut-C30; inducer 0.13 g/L): 3.58 U/mL | Cellulase activity at day 3 (specific induction power, U/mg inducer) (T. reesei Rut-C30; inducer 0.13 g/L): 26.9 U/mg | Cellulase activity at day 3 (T. reesei Rut-C30; inducer 1.3 g/L): 15.0 U/mL | Cellulase activity at day 3 (specific induction power, U/mg inducer) (T. reesei Rut-C30; inducer 1.3 g/L): 11.2 U/mg | activity as cellulase inducer relative to cellobiose [1]: 2500 times

OC[C@H]1O[C@H](O[C@H]2[C@H](O)[C@@H](O)[C@H](O)O[C@@H]2CO)[C@H](O)[C@@H](O)[C@@H]1O [Maltose, maltose]
Amylase activity at day 3 [2]: 2.11 U/mL | Amylase activity at day 3 (specific induction power, U/mg inducer) [2]: 44.0 U/mg

Sucrose monopalmitate
induced sucrase yield relative to sucrose (Pullularia pullulans): 80 times

mono-O-acetyl cellobiose
effectiveness at inducing cellulase (in words) (Penicillium purpurogenum): the most active inducer tested

O=C[C@H](O)[C@@H](O)[C@H](O[C@@H]1O[C@H](CO)[C@@H](O)[C@H](O)[C@H]1O)[C@H](O)CO [cellobiose, reference compound]
Cellulase activity at day 3 (T. reesei Rut-C30; inducer 1.0 g/L): 0.34 U/mL | Cellulase activity at day 3 (specific induction power, U/mg inducer) (T. reesei Rut-C30; inducer 1.0 g/L): 0.34 U/mg

6″ acetylated lactose monoester [Purified lactose monoacetate]
Cellulase activity at day 3 (T. reesei Rut-C30; inducer 0.09 g/L): 2.05 U/mL | Cellulase activity at day 3 (specific induction power, U/mg inducer) (T. reesei Rut-C30; inducer 0.09 g/L): 22.0 U/mg | specific induction activity relative to unmodified lactose (T. reesei Rut-C30; inducer 0.09 g/L, day 3): approximately 34 times | Cellulase activity at day 3 (T. reesei Rut-C30; inducer 0.51 g/L): 10.1 U/mL | Cellulase activity at day 3 (specific induction power, U/mg inducer) (T. reesei Rut-C30; inducer 0.51 g/L): 19.9 U/mg | specific induction activity relative to unmodified lactose (T. reesei Rut-C30; inducer 0.51 g/L, day 3): ~31 times | Cellulase activity at day 3 (T. reesei Rut-C30; inducer 1.05 g/L): 14.0 U/mL | Cellulase activity at day 3 (specific induction power, U/mg inducer) (T. reesei Rut-C30; inducer 1.05 g/L): 13.3 U/mg | specific induction activity relative to unmodified lactose (T. reesei Rut-C30; inducer 1.05 g/L, day 3): ~21 times

CC(=O)OC[C@H]1O[C@@H](O[C@@H]2[C@@H](O)[C@H](O)[C@@H](COC(C)=O)O[C@@H]2O)[C@H](O)[C@@H](O)[C@@H]1O [Purified sophorose diacetate, 6′ and 6″ acetylated alpha-sophorose diester]
Cellulase activity at day 3 (T. reesei Rut-C30; inducer 0.03 g/L): 6.33 U/mL | Cellulase activity at day 3 (specific induction power, U/mg inducer) (T. reesei Rut-C30; inducer 0.03 g/L): 211.0 U/mg | specific induction power relative to sophorose (T. reesei Rut-C30; inducer 0.03 g/L, day 3): ~8 times | Cellulase activity at day 3 (T. reesei Rut-C30; inducer 0.12 g/L): 23.2 U/mL | Cellulase activity at day 3 (specific induction power, U/mg inducer) (T. reesei Rut-C30; inducer 0.12 g/L): 193.3 U/mg | specific induction power relative to unmodified sophorose (T. reesei Rut-C30; inducer 0.12 g/L, day 3): ~7 times

From US10059973B2, “Carbohydrate esters as inducers for gene expression” (priority 2012, dated 2018)
